Measured values as given in the CheMixHub viscosity set.

Experiment: xn = mol fraction of the nth substance listed

C1CCCCC1 + CCCCCCCCCC
Settings	viscosity [mPa·s]
298.15 K, 101 kPa, x2 = 0.1357	0.8838
298.15 K, 101 kPa, x2 = 0.1638	0.8739
298.15 K, 101 kPa, x2 = 0.1909	0.8684
298.15 K, 101 kPa, x2 = 0.2292	0.8595
298.15 K, 101 kPa, x2 = 0.2677	0.8527
298.15 K, 101 kPa, x2 = 0.2769	0.8484
298.15 K, 101 kPa, x2 = 0.316	0.8438
298.15 K, 101 kPa, x2 = 0.3563	0.8348
298.15 K, 101.33 kPa, x1 = 0.1037	0.836
298.15 K, 101.33 kPa, x1 = 0.1316	0.8418
298.15 K, 101.33 kPa, x1 = 0.2065	0.824
298.15 K, 101.33 kPa, x1 = 0.254	0.8386
298.15 K, 101.33 kPa, x1 = 0.3077	0.818
298.15 K, 101.33 kPa, x1 = 0.3302	0.8292
298.15 K, 101.33 kPa, x1 = 0.4003	0.818
298.15 K, 101.33 kPa, x1 = 0.467	0.8331
298.15 K, 101.33 kPa, x1 = 0.5005	0.818
298.15 K, 101.33 kPa, x1 = 0.5494	0.8222
298.15 K, 101.33 kPa, x1 = 0.6	0.814
298.15 K, 101.33 kPa, x1 = 0.6289	0.8303
298.15 K, 101.33 kPa, x1 = 0.7015	0.8247
298.15 K, 101.33 kPa, x1 = 0.7045	0.812
298.15 K, 101.33 kPa, x1 = 0.7719	0.8409
298.15 K, 101.33 kPa, x1 = 0.802	0.819
298.15 K, 101.33 kPa, x1 = 0.8324	0.8412
298.15 K, 101.33 kPa, x1 = 0.8857	0.8612
298.15 K, 101.33 kPa, x1 = 0.9001	0.845
298.15 K, 101.33 kPa, x1 = 0.9309	0.8746
298.15 K, 101.33 kPa, x2 = 0.0178	0.8968
303.15 K, 101.33 kPa, x1 = 0.1037	0.78
303.15 K, 101.33 kPa, x1 = 0.2065	0.766
303.15 K, 101.33 kPa, x1 = 0.3077	0.761
303.15 K, 101.33 kPa, x1 = 0.4003	0.761
303.15 K, 101.33 kPa, x1 = 0.5005	0.76
303.15 K, 101.33 kPa, x1 = 0.6	0.756
303.15 K, 101.33 kPa, x1 = 0.7045	0.754
303.15 K, 101.33 kPa, x1 = 0.802	0.759
303.15 K, 101.33 kPa, x1 = 0.9001	0.78
308.15 K, 101 kPa, x1 = 0.0439	0.7345
308.15 K, 101 kPa, x1 = 0.175	0.7272
308.15 K, 101 kPa, x1 = 0.2106	0.7254
308.15 K, 101 kPa, x1 = 0.3096	0.7164
308.15 K, 101 kPa, x1 = 0.3863	0.7147
308.15 K, 101 kPa, x1 = 0.4943	0.7122
308.15 K, 101 kPa, x1 = 0.5864	0.7133
308.15 K, 101 kPa, x1 = 0.7303	0.7189
308.15 K, 101 kPa, x1 = 0.8805	0.7325
308.15 K, 101 kPa, x1 = 0.9385	0.7399
308.15 K, 101.33 kPa, x1 = 0.1037	0.728
308.15 K, 101.33 kPa, x1 = 0.2065	0.713
308.15 K, 101.33 kPa, x1 = 0.3077	0.708
308.15 K, 101.33 kPa, x1 = 0.4003	0.71
308.15 K, 101.33 kPa, x1 = 0.5005	0.71
308.15 K, 101.33 kPa, x1 = 0.6	0.702
308.15 K, 101.33 kPa, x1 = 0.7045	0.699
308.15 K, 101.33 kPa, x1 = 0.802	0.703
308.15 K, 101.33 kPa, x1 = 0.9001	0.716
313.15 K, 101 kPa, x1 = 0.0439	0.6849
313.15 K, 101 kPa, x1 = 0.175	0.6717
313.15 K, 101 kPa, x1 = 0.2106	0.6706
313.15 K, 101 kPa, x1 = 0.3096	0.666
313.15 K, 101 kPa, x1 = 0.3863	0.6618
313.15 K, 101 kPa, x1 = 0.4943	0.6596
313.15 K, 101 kPa, x1 = 0.5864	0.6577
313.15 K, 101 kPa, x1 = 0.7303	0.6684
313.15 K, 101 kPa, x1 = 0.8805	0.6936
313.15 K, 101 kPa, x1 = 0.9385	0.7077

COC(C)=O + CCCCCCCCCC
298.15 K, 101.3 kPa
Settings	viscosity [mPa·s]
x1 = 0.0803	0.7987
x1 = 0.1876	0.7291
x1 = 0.3354	0.6485
x1 = 0.4452	0.5969
x1 = 0.476	0.5809
x1 = 0.5538	0.5456
x1 = 0.618	0.5186
x1 = 0.7363	0.4714
x1 = 0.8315	0.4356

CC(CC(C)(C)C)CP(=O)([O-])CC(C)CC(C)(C)C.CCCC[P+](C)(CCCC)CCCC (stereo not given) + CCCCCCCCCCCC
viscosity [mPa·s], 101 kPa
Settings	298.15 K	303.15 K	308.15 K	313.15 K	318.15 K	323.15 K
x2 = 0.25	318	214	159	112	81.6	60.6
x2 = 0.43	88.6	67.8	53.6	41.9	34.4	27.1
x2 = 0.56	39.4	31	25.4	21.7	18.3	16.1

COC(C)=O + CCCCCCCCCCCC
298.15 K, 101.3 kPa
Settings	viscosity [mPa·s]
x1 = 0.09	1.243
x1 = 0.213	1.08
x1 = 0.3361	0.9577
x1 = 0.4514	0.8306
x1 = 0.5533	0.7377
x1 = 0.6236	0.6777
x1 = 0.6972	0.6144
x1 = 0.7671	0.557
x1 = 0.8924	0.4527
x1 = 0.9377	0.4171

CCCCCCCC(=O)OCC + CCCCCCCCCCCCCCCC
Settings	viscosity [mPa·s]
295.04 K, 103 kPa, x2 = 0.5	2.176
298.65 K, 103 kPa, x2 = 0.25	1.72
312.63 K, 101 kPa, x2 = 0.5	1.583

COC(C)=O + CCCCCCCCCCCCCCCC
298.15 K, 101.3 kPa
Settings	viscosity [mPa·s]
x1 = 0.0393	2.924
x1 = 0.118	2.619
x1 = 0.3657	1.819
x1 = 0.4814	1.491
x1 = 0.5357	1.35
x1 = 0.652	1.086
x1 = 0.7625	0.8431
x1 = 0.8682	0.6349
x1 = 0.9609	0.4379

COCCOC + CCCCCCCCCO
101 kPa
Settings	viscosity [mPa·s]
293.15 K, x1 = 0.05508	9.45
293.15 K, x1 = 0.1012	7.813
293.15 K, x1 = 0.2007	5.336
293.15 K, x1 = 0.2922	3.86
293.15 K, x1 = 0.393	2.747
293.15 K, x1 = 0.494	1.994
293.15 K, x1 = 0.5924	1.477
293.15 K, x1 = 0.7015	1.076
293.15 K, x1 = 0.7986	0.812
293.15 K, x1 = 0.907	0.588
293.15 K, x1 = 0.9472	0.524
303.15 K, x1 = 0.04903	6.486
303.15 K, x1 = 0.1035	5.323
303.15 K, x1 = 0.2044	3.716
303.15 K, x1 = 0.2954	2.745
303.15 K, x1 = 0.3981	1.979
303.15 K, x1 = 0.4938	1.485
303.15 K, x1 = 0.5991	1.098
303.15 K, x1 = 0.7049	0.816
303.15 K, x1 = 0.7958	0.643
303.15 K, x1 = 0.902	0.492
303.15 K, x1 = 0.9436	0.446
313.15 K, x1 = 0.05382	4.747
313.15 K, x1 = 0.1054	4
313.15 K, x1 = 0.2052	2.936
313.15 K, x1 = 0.2949	2.233
313.15 K, x1 = 0.3955	1.66
313.15 K, x1 = 0.4901	1.279
313.15 K, x1 = 0.5829	1.007
313.15 K, x1 = 0.7	0.739
313.15 K, x1 = 0.8016	0.58
313.15 K, x1 = 0.9013	0.457
313.15 K, x1 = 0.9469	0.41

COC(C)=O + CCCCCCCCO
viscosity [mPa·s], 101 kPa
Settings	x2 = 0.053	x2 = 0.1119	x2 = 0.1776	x2 = 0.2515	x2 = 0.3351	x2 = 0.4305	x2 = 0.5404	x2 = 0.6684	x2 = 0.8194
298.15 K	0.436	0.505	0.601	0.736	0.932	1.232	1.722	2.573	4.177
303.15 K	0.414	0.478	0.564	0.685	0.86	1.126	1.554	2.288	3.646
308.15 K	0.395	0.454	0.532	0.64	0.795	1.029	1.402	2.03	3.174
313.15 K	0.374	0.429	0.5	0.596	0.734	0.941	1.267	1.808	2.773
